This data set in a line: Release of lidocaine dissolved in oil through the silicone balloon wall of device 20. In kind it is physicochemical. How it is done: Experiments were performed using Lidocaine dissolved in oily substances using two different expansion volumes (one with 10 ml, the other with 16 ml) of the balloon of the device 20.
A. The balloon was expanded by injection of 10 ml of the oily solution into the balloon. A series of 4 experiments using lidocaine dissolved in oil was performed. The results were as follows: • 1. After 28 days—436 mg out of 500 mg was released. • 2. After 29 days—all the 500 mg was released (out of 500 mg). • 3. After 22 days—all the 500 mg was released (out of 500 mg). • 4. After 63 days—all the 1000 mg was released (out of 1000 mg).
B. The balloon was expanded by injection of 16 ml of the oily solution into the balloon. 2 groups and a series of 3 experiments using lidocaine dissolved in oil were performed. The results were as follows: • 1. After 21 days: —all the 500 mg was released (out of 500 mg) • […] was released, out of 1000 mg • 1086 mg was released, out of […] • 2. After 84 days—all the 500 mg was released (out of 500 mg) • all the 1000 mg was released (out of 1000 mg) • all the 1500 mg was released (out of 1500 mg)

The values that follow come from patent US20190151625A1, “DRUG DELIVERY APPARATUS AND METHOD” (INNOVENTIONS LTD., priority 2016, published 2019).

Structures are written as SMILES.

Regarding `CCN(CC)CC(=O)Nc1c(C)cccc1C` [Lidocaine], the “release through the silicone balloon wall” value (Lidocaine dissolved in oily substances, balloon expansion volumes 10 ml and 16 ml) is “released in large quantities”. Also, the amount released turned out to be 436 mg (balloon expanded with 10 ml oily solution, experiment 1, after 28 days, out of 500 mg); 500 mg (balloon expanded with 10 ml oily solution, experiment 2, after 29 days, out of 500 mg); 500 mg (balloon expanded with 10 ml oily solution, experiment 3, after 22 days, out of 500 mg); 1000 mg (balloon expanded with 10 ml oily solution, experiment 4, after 63 days, out of 1000 mg); 500 mg (balloon expanded with 16 ml oily solution, after 21 days, out of 500 mg); 1086 mg (balloon expanded with 16 ml oily solution, after 21 days, out of 1500 g). The amount released (balloon expanded with 16 ml oily solution, after 84 days, out of 500 mg) stood at 500 mg; the amount released (balloon expanded with 16 ml oily solution, after 84 days, out of 1000 mg) is listed as 1000 mg; the amount released (balloon expanded with 16 ml oily solution, after 84 days, out of 1500 mg) turned out to be 1500 mg.
